Entries after “also recorded” stand apart in the source; their conditions may differ. Residues, ends and D or L forms follow the SMILES beside them. *: point of attachment. Cbz = O=C(OCc1ccccc1)*; CH2F = FC*

Here are results for five compounds from US20100203044A1, “DR6 ANTAGONISTS AND USES THEREOF IN TREATING NEUROLOGICAL DISORDERS” (priority 2006, published 2010).

Test [1] has as its system DR6-AP binding sites on BAX null sensory axons. The test is described as follows: in situ DR6-AP sensory axon binding assay after NGF deprivation. The settings on record: BAX null sensory axons E12.5; BACE inhibitor at 1 uM. The class given is cell-based, mouse. Here is the method:
For the in situ DR6-AP sensory axon binding assay, either wild-type or Bax null sensory explants were cultured in Neurobasal medium/B27 (Invitrogen) as outlined in the Examples 7-8 above, with 50 ng/ml NGF (Roche). Two days post-plating, DRG explants were either left untreated or deprived from NGF as described above in Examples 7-8. Bax inhibitory peptide was added where indicated on FIG. 12B (10 uM, Bax-V5, Tocris). Twelve hours post-NGF deprivation, DRG explants were washed twice with the binding buffer (HBSS, Gibco Cat. No. 14175-095, with 0.2% BSA, 0.1% NaN3, 5 mM CaCl2, 1 mM MgCl2, 20 mM HEPES, pH=7.0). AP binding assay was then carried out by making a 1:1 mixture of DR6-AP conditioned medium and the binding buffer (or control AP conditioned medium and the binding buffer), which was applied directly to DRG explants in 8-well culture slides (Becton, Dickinson and Company) and incubated for 90 minutes at room temperature.
Following the incubation, unbound DR6-AP proteins were washed away by rinsing DRG explants five times with the binding buffer. DRG explants were then fixed with 3.7% formaldehyde diluted in PBS, for 12 minutes at room temperature. The remaining formaldehyde was removed by rinsing DRG explants 3 times with HBS buffer (20 mM HEPES pH=7.0, 150 mM NaCl). Endogenous AP activity was blocked by heat inactivation at 65° C. in HBS buffer for 30 minutes. […]

For a further test, the system named is sensory neurons. The test can be described thus: NGF deprivation assay in Campenot Chambers, local sensory axonal degeneration. Type of test: cell-based, mouse. The settings on record: for sensory axonal degeneration induced by NGF withdrawal: 30 μg/ml in axonal compartments with anti-NGF, 0, 6 and 24 hours. Here is the method:
Materials and methods used to generate the data shown in this figure are as follows. To examine whether ligand is required for DR6 function in sensory axonal degeneration, a compartmented culture analysis of sensory axon growth and degeneration was carried out as follows. A Campenot nerve cell chamber system was used to isolate neuronal processes (axons) from the cell bodies in different compartments (separate fluid environments), analogous to neuronal cell bodies in one location of the nervous system projecting their axons to a distal target in another location. The assay was carried out as originally described by Campenot (Campenot et al., J. Neurosci. 11(4): 1126-39 (1991)) with the following modifications. Briefly, 35-mm tissue culture dishes were coated with PDL/Laminin and scratched with a pin rake (Tyler Research) to generate tracks, as illustrated for example in FIGS. 1 and 4 of Campenot et al., supra.
A drop of culture medium (Neurobasal medium with B27 supplement, 25 ng/ml of NGF, and 4 g/L of methylcellulose) was placed on the scratched substratum. A Teflon divider (Tyler Research) was seated on silicone grease and a dab of silicone grease was placed at the mouth of the center slot. Dissociated sensory neurons derived from E12.5 mouse DRGs were suspended in methylcellulose-thickened medium and loaded into a disposable sterile syringe fitted with a 22-gauge needle. This cell suspension was injected into the center slots of each compartmented dish under the dissecting microscope. The neurons were allowed to settle overnight. […]
To trigger local axonal degeneration, NGF-containing medium from axonal compartments was substituted with neurobasal medium with an NGF blocking antibody (anti-NGF, Genentech, Inc., 20 ug/ml). Zero hours, 6 hours, or 24 to 48 hours following NGF deprivation, sensory neurons were fixed in 4% PFA for 30 minutes at room temperature and processed for immunofluorescence staining with axonal marker TUJ-1 (Covance, 1:500 dilution) to visualize degenerating axons by fluorescence microscopy (FIG. 11B) (as above described in Example 7). […]
To examine whether ligand is required for DR6 function in axonal degeneration program triggered by NGF withdrawal, 30 μg/ml of hDR6-ECD-Fc immunoadhesin protein (described in EXAMPLE 3 above) or 30 μg/ml of a control Fc (Genentech, Inc.) was included together with anti-NGF treatment in axonal compartments of Campenot Chambers. Zero to 24 hours after NGF deprivation, axons in Campenot Chambers were fixed with 4% PFA/PBS and visualized by immuno-fluorescence staining with TUJ-1 (1:500, Covance)/secondary antibody conjugated to a fluorescence group Alexa 488 (Molecular Probes, BD) (FIG. 11B). […]

A further test concerns commissural neurons. The test can be described thus: dorsal spinal cord (commissural explant) survival assay. Type of test: cell-based, rat. As to conditions: for commissural axon degeneration: 48 hours, hDR6-ECD-Fc at 30 μg/ml and 10 μg/ml. The method, then: To examine functional roles of DR6 in axonal degeneration and programmed cell death of commissural neurons, an RNAi-based dorsal spinal cord survival assay (Kennedy et al., Cell, 78:425-435 (1994); Wang et al., supra, 1999) was conducted (see FIG. 3). E13 rat or E11.5 mouse embryos were placed in L15 medium (Gibco) and siRNAs (IDT) together with green fluorescent protein (“GFP”)-encoding plasmids were injected into the neural tubes. The siRNAs and plasmids were then delivered to dorsal progenitor cells by electroporation. Dorsal spinal cord explants were dissected out, embedded into a 3D-collagen gel matrix, and cultured in Opti-MEM/F12 medium (Invitrogen) with recombinant netrin-1 ([…]) and 5% horse serum (Sigma) at 37° C. in a 5% CO2 environment. Within 16 hours in response to chemo-attractant netrin-1, commissural axons grow out of the explant into the collagen matrix gel (Kennedy et al., supra, 1994). Commissural axons are visualized by GFP fluorescence by observation using an inverted microscope.
Materials and methods used to generate the data shown in this figure are as follows. To investigate physiological roles of DR6 receptor in axonal degeneration and programmed cell death of commissural neurons, a dorsal spinal cord survival assay according to protocols known in the art (Kennedy et al., Cell, 78:425-435 (1994); Wang et al., Nature, 401:765-769 (1999)) was performed (with data shown in FIG. 4B). E13 rat embryos were placed in L15 medium (Gibco) and injected into their neural tubes with the following siRNA constructs (FIG. 4B): […]
A dorsal spinal cord survival assay (as described in Example 2 above) was conducted using anti-DR6 antibodies. Microscopic observation (using green fluorescence channel for GFP) was employed to visualize commissural axons. […] To visualize GFP-expressing commissural axons, pictures were taken on the Axiovert 200 Zeiss inverted microscope (in green fluorescence channel for GFP) using AxioVision40 Release 4.5.0.0 SP1 (March 2006) computer software from Carl Zeiss Imaging Solutions. […]

For test [2] the following is noted: cited from earlier work.

Turning to OM99-2 [reference compound], the “disappearance of DR6-AP binding sites from sensory axons following NGF withdrawal” value in test [1] is reported as “can block the disappearance of DR6-AP binding sites”. In addition, the “sensory axonal degeneration in the absence of NGF” value with sensory neurons (BACE inhibitor at 1 uM) is “blocked”.

As to “(L)-HIV-TAT48-57-PP-JBD20 [L-JNK-I, reference compound]”, the “axonal degeneration of commissural neurons” value in the test on commissural neurons (JNK signaling blocked by peptide inhibitor at 1 μM) is “partially blocked axonal degeneration”.

“hDR6-ECD-Fc: human DR6 extracellular domain sequence fused with Fc, SEQ ID NO: 4”: the commissural axon degeneration entry in the test with commissural neurons was “delayed”; in the test on commissural neurons (listed as DR6-Fc) it was “can be delayed”. Further, the “sensory axonal degeneration induced by NGF withdrawal” value in the test on sensory neurons is “delayed sensory axonal degeneration; also recorded: delayed the onset of axonal degeneration”; in the test with sensory neurons (listed as DR6-Fc), “can be delayed”.

`CC[C@H](C)[C@H](NC(=O)OCc1ccccc1)C(=O)N[C@@H](CCC(=O)OC)C(=O)N[C@H](C(=O)N[C@@H](CC(=O)OC)C(=O)CF)[C@@H](C)O` [caspase-8 inhibitor, Z-IETD-FMK, reference compound] (Cbz-IE(OMe)TD(OMe)-CH2F): in the test with sensory neurons (neurons cultured 5 days, then 24 hours, SP 600125 1 uM, Z-IETD-FMK 10 uM, Z-DEVD-FMK 10 uM), the “sensory axonal degeneration after NGF deprivation” value is reported as “delayed”.

As for `CC12CC3CC(C)(C1)CC(N)(C3)C2` [Memantine], the “symptoms across SIB, ADCS-ADL19, CIBIC-Plus and NPI outcome measures” value in test [2] (human, in vivo) is “improvement and stabilization of symptoms”. Further, in test [2] (patients taking stable doses of Donepezil), the “outcome measures SIB, ADCS-ADL19, CIBIC-Plus, NPI, BGP versus placebo” value was “benefit over placebo”.
